The results in this text go back to US10821115B2, “Compounds that inhibit Mcl-1 protein” (priority 2017, dated 2020).

As a reminder, the IC50 is the point on the concentration scale where inhibition reaches its midpoint.

Like-named read-outs stand apart in the source and are kept apart here.

Assay [1] deals with human multiple myeloma cell line, OPM-2. Nature of the assay: Cell viability assay (OPM-2 10 FBS), CellTiter-Glo. Format: cell-based. An outline of the steps: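 IC50 values come from 4-parameter logistic fits of luminescence signals reflecting cell viability. Treatment lasted 16 h at 37 °C in complete medium with 10% FBS, starting from 3000 cells/well.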
Background: ATP-based viability assays read luminescence as a measure of living cells.

Assay [2] has as its target recombinant human Mcl-1 (residues 171-327) / Bim interaction (Homo sapiens (Human), UniProt Q07820). Put plainly: biochemical. Type of assay: binding. As to conditions: read-out: Mcl-1 HTRF IC50. For orientation: TR-FRET usually uses a lanthanide donor and a delayed reading to cut background.
[3] abbreviates: read-out: OPM-2 10% FBS IC50 IP, OPM-2 cells, 10% FBS, 16 h, CellTiter-Glo.
Where [4] appears, read: TR-FRET, Mcl-1(171-327) / biotin-Bim (51-76).
[5] abbreviates: Homo sapiens, OPM-2, 16 h, read-out: OPM-2 10% FBS IC50 IP, OPM-2 cells, 10% FBS, 16 h, CellTiter-Glo.

recombinant human Mcl-1 (residues 171-327) / Bim interaction, sequence (Q07820 171-327): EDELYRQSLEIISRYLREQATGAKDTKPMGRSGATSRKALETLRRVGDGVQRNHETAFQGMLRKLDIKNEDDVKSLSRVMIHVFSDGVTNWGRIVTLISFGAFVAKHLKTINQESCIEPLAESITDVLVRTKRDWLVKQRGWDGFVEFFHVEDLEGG

For `CO[C@@]1(CN2CC3(C2)CN(C)C(=O)O3)/C=C/C[C@H](C)[C@@H](C)S(=O)(=O)NC(=O)c2ccc3c(c2)N(C[C@@H]2CC[C@H]21)C[C@@]1(CCCc2cc(Cl)ccc21)CO3` [Example 291, (1S,3′R,6′R,7′S,8′E,11′S,12′R)-6-chloro-7′-methoxy-11′,12′-dimethyl-7′-((7-methyl-6-oxo-5-oxa-2,7-diazaspiro[3.4]oct-2-yl)methyl)-3,4-dihydro-2H,15′H-spiro[naphthalene-1,22′-[20]oxa[13]thia[1,14]diazatetracyclo [14.7.2.0~3,6~.0~19,24~]pentacosa[8,16,18,24]tetraen]-15′-one 13′,13′-dioxide], the IC50 in assay [1] (Homo sapiens, OPM-2, 16 h, read-out: OPM-2 10% FBS IC50 IP, OPM-2 cells, 10% FBS, 16 h incubation) was 104 nM; in assay [2] (0.1 nM Mcl-1(171-327), 0.05 nM biotin-Bim (51-76)) it was 0.083 nM.
In the case of `CO[C@]1(C)CCC[C@H](C)[C@@H](C)S(=O)(=O)NC(=O)c2ccc3c(c2)N(C[C@@H]2CC[C@H]21)C[C@@]1(CCCc2cc(Cl)ccc21)CO3` (single isomer, unassigned) [Example 100212], the figures for the IC50 in assay [1] (setting [3]) and in assay [2] (setting [4]) were 1620 nM and 0.901 nM, respectively.
The corresponding values for `C[C@@H]1[C@@H](C)CCC[C@@]2(C[C@H]2C(=O)N2CCN3CCOC[C@H]3C2)[C@@H]2CC[C@H]2CN2C[C@@]3(CCCc4cc(Cl)ccc43)COc3ccc(cc32)C(=O)NS1(=O)=O` [Example 100303, (1R,2R,3′R,6′R,11′S,12′R,22′S)-6″-chloro-2-((9aR)-hexahydropyrazino[2,1-c][1,4]oxazin-8(1H)-ylcarbonyl)-11′,12′-dimethyl-3″,4″-dihydro-2″H,15′H-dispiro[cyclopropane-1,7′-[20]oxa[13]thia[1,14]diazatetracyclo [14.7.2.0~3,6~.0~19,24~]pentacosa[16,18,24]triene-22′,1″-naphthalen]-15′-one 13′,13′-dioxide] are 7330 nM and 3.64 nM.
Take `C[C@@H]1[C@@H](C)C/C=C/[C@](O)(c2c[nH]nn2)[C@@H]2CC[C@H]2CN2C[C@@]3(CCCc4cc(Cl)ccc43)COc3ccc(cc32)C(=O)NS1(=O)=O` [Example 100239, (1S,3′R,6′R,7′R,8′E,11′S,12′R)-6-chloro-7′-hydroxy-11′,12′-dimethyl-7′-(1H-1,2,3-triazol-4-yl)-3,4-dihydro-2H,15′H-spiro[naphthalene-1,22′-[20]oxa[13]thia[1,14]diazatetracyclo [14.7.2.0~3,6~.0~19,24~]pentacosa[8,16,18,24]tetraen]-15′-one 13′,13′-dioxide]: the IC50 in assay [1] (setting [5]) came to 3740 nM; in assay [2] (setting [4]) it was 0.333 nM.
As to `C[C@@H]1[C@@H](C)C/C=C/[C@](O)(CC(=O)N2CCC2)[C@@H]2CC[C@H]2CN2C[C@@]3(CCCc4cc(Cl)ccc43)COc3ccc(cc32)C(=O)NS1(=O)=O` [Example 100292, (1S,3′R,6′R,7′R,8′E,11′S,12′R)-7′-(2-(1-azetidinyl)-2-oxoethyl)-6-chloro-7′-hydroxy-11′,12′-dimethyl-3,4-dihydro-2H,15′H-spiro[naphthalene-1,22′-[20]oxa[13]thia[1,14]diazatetracyclo [14.7.2.0~3,6~.0~19,24~]pentacosa[8,16,18,24]tetraen]-15′-one 13′,13′-dioxide], the values for the IC50 in assay [1] (setting [5]) and in assay [2] (setting [4]) were 672 nM and 0.115 nM, respectively.
The corresponding values for `COCCOC[C@@]1(O)/C=C/C[C@H](C)[C@@H](C)S(=O)(=O)NC(=O)c2ccc3c(c2)N(C[C@@H]2CC[C@H]21)C[C@@]1(CCCc2cc(Cl)ccc21)CO3` [Example 100445, (1S,3′R,6′R,7′R,8′E,11′S,12′R)-6-chloro-7′-hydroxy-7′-((2-methoxyethoxy)methyl)-11′,12′-dimethyl-3,4-dihydro-2H,15′H-spiro[naphthalene-1,22′-[20]oxa[13]thia[1,14]diazatetracyclo [14.7.2.0~3,6~.0~19,24~]pentacosa[8,16,18,24]tetraen]-15′-one 13′,13′-dioxide] are 98 nM and 0.04 nM.
The corresponding values for `CO[C@@]1(C#CCCN2CCOCC2)/C=C/C[C@H](C)[C@@H](C)S(=O)(=O)NC(=O)c2ccc3c(c2)N(C[C@@H]2CC[C@H]21)C[C@@]1(CCCc2cc(Cl)ccc21)CO3` (single isomer, unassigned) [Example 100012] are 1130 nM and 0.275 nM.
